# Source: the NIST ThermoML archive (doi:10.1016/j.fluid.2010.08.022)
# ± gives the expanded uncertainty stated by the source.
# Experiment: refractive index (Na D-line) (dimensionless)
# Settings: 101.33 kPa, Standard Abbe refractometry
"refractive index (278.45 K, Crystal)","refractive index (288.35 K, Liquid crystal of unknown type)","refractive index (298.15 K, Liquid crystal of unknown type)","refractive index (308.25 K, Liquid crystal of unknown type)","refractive index (313.21 K, Liquid crystal of unknown type)","refractive index (323.45 K, Liquid crystal of unknown type)","refractive index (333.25 K, Liquid crystal of unknown type)","refractive index (278.35 K, Liquid crystal of unknown type)","refractive index (288.25 K, Liquid crystal of unknown type)","refractive index (298.05 K, Liquid crystal of unknown type)","refractive index (308.22 K, Liquid crystal of unknown type)","refractive index (318.23 K, Liquid crystal of unknown type)","refractive index (328.05 K, Liquid crystal of unknown type)","refractive index (338.05 K, Liquid crystal of unknown type)","refractive index (341.15 K, Liquid crystal of unknown type)","refractive index (343.25 K, Liquid crystal of unknown type)",SMILES
1.496 ± 0.00069,1.49406 ± 0.00068,1.48994 ± 0.00068,1.48558 ± 0.00068,1.48343 ± 0.00068,1.47901 ± 0.00068,1.4747 ± 0.00068,,,,,,,,,,CCCCCCCC/C=C\CCCCCCCC(=O)O.NCCO [2-hydroxyethylammonium oleate]
,,,,,,,1.4956 ± 0.00068,1.49226 ± 0.00068,1.48855 ± 0.00068,1.48463 ± 0.00068,1.48023 ± 0.00068,1.47673 ± 0.00068,1.47267 ± 0.00068,1.47055 ± 0.00075,1.46364 ± 0.00094,CCCCCCCC/C=C\CCCCCCCC(=O)[O-].OCC[NH2+]CCO [bis(2-hydroxyethyl)ammonium oleate]
